Measurements as given in patent US9248109B2, “High penetration prodrug compositions of peptides and peptide-related compounds” (priority 2009, dated 2016).
Where a name gives a salt, the structure may show the parent alone. Non-standard residues stand in square brackets, D forms with d. Residues, ends and D or L forms follow the SMILES beside them. *: point of attachment. Arg(NO2) = N=C(NCCC[C@H](N)C(=O)O)N[N+](=O)[O-]; X1 = CCCCO*

Tested on: Sprague Dawley rats
Assay: Anti-obese activity, transdermal, female Sprague Dawley rats 15 weeks old (first experiment)
Assay type: in vivo, rat
Details: for Weight (g) (Day 1): baseline; for effect on body weights of rats (in words): 10, 1 or 0.3 mg/kg transdermal twice per day for 30 days; for effect on food intakes and body weights (in words): administrated transdermally, as low as 0.3 mg/kg in rat, SD rats and DB/DB mice
Procedure: (§1) In a first experiment, 40 female Sprague Dawley rats (15 weeks old, 318-346 g) were divided into 4 groups. In group A, 0.2 ml of water was administered to the back of rat (n=10) twice per day for 30 days. In Groups B, C, and D, 10 mg/kg, 1 mg/kg, or 0.3 mg/kg of H-Val-Pro-Gly-Pro-Arg(NO2)—OCH(CH3)2.HCl(SEQ ID NO: 197) in 0.2 ml of water was administered transdermally to the back of rat (n=10) twice per day for 30 days respectively.
as §1, with “Dawley (SD)” for “Dawley”, “315-340” for “318-346”, “H-Val-Pro-Gly-Pro-Arg(diAc)-OCH2CH2CH2CH3.HCl(SEQ” for “H-Val-Pro-Gly-Pro-Arg(NO2)—OCH(CH3)2.HCl(SEQ”, “198)” for “197)”
as §1, with “Dawley (SD)” for “Dawley”, “320-345” for “318-346”, “H-Ala-Pro-Gly-Pro-Arg(NO2)—OCH2CH2CH2CH3.HCl(SEQ” for “H-Val-Pro-Gly-Pro-Arg(NO2)—OCH(CH3)2.HCl(SEQ”, “199)” for “197)”
as §1, with “Dawley (SD)” for “Dawley”, “320-350” for “318-346”, “H-Val-Pro-Asp(OEt)-Pro-Arg(NO2)—OCH2CH2CH2CH3.HCl(SEQ” for “H-Val-Pro-Gly-Pro-Arg(NO2)—OCH(CH3)2.HCl(SEQ”, “200)” for “197)”

[1] = 0.3 mg/kg transdermal twice per day for 30 days
[2] = 0.3 mg/kg transdermal twice per day
[3] = 1 mg/kg transdermal twice per day for 30 days
[4] = 1 mg/kg transdermal twice per day
[5] = 10 mg/kg transdermal twice per day for 30 days
[6] = 10 mg/kg transdermal twice per day

Row | Molecule | Food intake (per day & per rat) [1] | Weight (g) (Day 30) [1] | Weight (g) (Day 1) [2] | Food intake (per day & per rat) [3] | Weight (g) (Day 30) [3] | Weight (g) (Day 1) [4] | Food intake (per day & per rat) [5] | Weight (g) (Day 30) [5] | Weight (g) (Day 1) [6] | effect on body weights of rats (in words) | effect on food intakes and body weights (in words)
1 | CCCCOC(=O)[C@H](CCCNC(=N)N[N+](=O)[O-])NC(=O)[C@@H]1CCCN1C(=O)CNC(=O)[C@@H]1CCCN1C(=O)[C@H](C)N [H-Ala-Pro-Gly-Pro-Arg(NO2)—OCH2CH2CH2CH3.HCl] (HELM PEPTIDE1{A.P.G.P.[N=C(NCCC[C@H](N[*:1])C(=O)[*:2])N[N+](=O)[O-]].[CCCCO[*:1]]}$$$$V2.0) | 22.7 ± 1.8 | 335.1 ± 4.8 g | 335.1 ± 6.2 g | 21.8 ± 2.3 | 323.7 ± 4.4 g | 333.6 ± 7.8 g | 20.8 ± 2.4 | 315.4 ± 3.8 g | 332.2 ± 7.4 g | reduced body weights of rats effectively | reduced food intakes and body weights
2 | CCCCOC(=O)[C@H](CCCNC(=N)N[N+](=O)[O-])NC(=O)[C@@H]1CCCN1C(=O)[C@H](CC(=O)OCC)NC(=O)[C@@H]1CCCN1C(=O)[C@@H](N)C(C)C [H-Val-Pro-Asp(OEt)-Pro-Arg(NO2)—OCH2CH2CH2CH3.HCl] (H-VPD(OEt)P[Arg(NO2)]-X1) | 22.7 ± 2.5 | 333.1 ± 3.9 g | 333.5 ± 7.1 g | 21.9 ± 2.7 | 326.8 ± 2.8 g | 329.8 ± 7.8 g | 20.1 ± 3.2 | 318.1 ± 3.9 g | 330.5 ± 8.2 g | reduced body weights of rats effectively | reduced food intake and body weights
3 | CC(C)OC(=O)[C@H](CCCNC(=N)N[N+](=O)[O-])NC(=O)[C@@H]1CCCN1C(=O)CNC(=O)[C@@H]1CCCN1C(=O)[C@@H](N)C(C)C [H-Val-Pro-Gly-Pro-Arg(NO2)-OCH(CH3)2•HCl, H-Val-Pro-Gly-Pro-Arg(NO2)—OCH(CH3)2.HCl] (HELM PEPTIDE1{V.P.G.P.[N=C(NCCC[C@H](N[*:1])C(=O)[*:2])N[N+](=O)[O-]].[CC(C)O[*:1]]}$$$$V2.0) | 22.1 ± 2.5 | 322.1 ± 4.3 g | 335.4 ± 5.2 g | 21.1 ± 2.7 | 313.7 ± 5.1 g | 333.1 ± 5.1 g | 19.9 ± 2.9 | 308.4 ± 4.5 g | 331.7 ± 6.2 g | reduced body weights of rats effectively | reduced food intakes and body weights
4 | H-Val-Pro-Gly-Pro-Arg(diAc)-OCH2CH2CH2CH3.HCl | 23.0 ± 1.7 | 347.1 ± 5.7 g | 333.1 ± 6.1 g | 21.9 ± 1.9 | 336.7 ± 5.6 g | 331.6 ± 6.6 g | 20.9 ± 2.2 | 329.2 ± 4.8 g | 334.1 ± 7.5 g | reduced body weights of rats effectively | reduced food intakes and body weights
